Measurements taken from PMC9856672, “SGC-CAMKK2-1: A Chemical Probe for CAMKK2” (Cells, 2023).

What was measured:
ALK = target: T1, ALK (Homo sapiens, UniProt Q9UM73); assay: KINOMEscan 1 μM, ALK; assay type: binding; details: 1000 nM; Entrez ALK; read-out: Percent Control
T1 construct: purchased Eurofins DiscoverX KINOMEscan
Source text: (§1) Supplement cells-12-00287-s001.zip/File S2. KinomeScan data for the CAMKK2 probe and negative control.xlsx, sheet "SGC-CAMKK2-1" | column: Percent Control

AURKB = target: T2, AURKB (Homo sapiens, UniProt Q96GD4); assay: KINOMEscan 1 μM, AURKB; assay type: binding; details: 1000 nM; Entrez AURKB; read-out: Percent Control
T2 construct: purchased Eurofins DiscoverX KINOMEscan
Source text: as §1

PDPK1 = target: T3, PDPK1 (Homo sapiens, UniProt O15530); assay: KINOMEscan 1 μM, PDPK1; assay type: binding; details: 1000 nM; Entrez PDPK1; read-out: Percent Control
T3 construct: purchased Eurofins DiscoverX KINOMEscan
Source text: as §1

PRKD2 = target: T4, PRKD2 (Homo sapiens, UniProt Q9BZL6); assay: DiscoverX KINOMEscan binding assay at 1 μM, PRKD2; details: Compound Concentration 1000 nM, read-out: Percent Control
T4 construct: purchased Eurofins DiscoverX KINOMEscan
Source text: as §1

SIK2 = target: T5, SIK2 (Homo sapiens, UniProt Q9H0K1); assay: KINOMEscan 1 μM, SIK2; assay type: binding; details: 1000 nM; Entrez SIK2; read-out: Percent Control
T5 construct: purchased Eurofins DiscoverX KINOMEscan
Source text: as §1

PLK2 = target: T6, PLK2 (Homo sapiens, UniProt Q9NYY3); assay: DiscoverX KINOMEscan binding assay at 1 μM, PLK2; details: Compound Concentration 1000 nM, read-out: Percent Control
T6 construct: purchased Eurofins DiscoverX KINOMEscan
Source text: as §1

[1] = target: T7, RSK2(Kin.Dom.1-N-terminal) (Homo sapiens, UniProt P51812); assay: DiscoverX KINOMEscan binding assay at 1 μM, RSK2(Kin.Dom.1-N-terminal); details: RSK2(Kin.Dom.1-N-terminal) (RPS6KA3); Compound Concentration 1000 nM; read-out: Percent Control
T7 construct: RSK2(Kin.Dom.1-N-terminal); purchased Eurofins DiscoverX KINOMEscan
Source text: as §1

MAP4K5 = target: T8, MAP4K5 (Homo sapiens, UniProt Q9Y4K4); assay: KINOMEscan 1 μM, MAP4K5; assay type: binding; details: 1000 nM; Entrez MAP4K5; read-out: Percent Control
T8 construct: purchased Eurofins DiscoverX KINOMEscan
Source text: as §1

MLK2 = target: T9, MLK2 (Homo sapiens, UniProt Q02779); assay: KINOMEscan 1 μM, MLK2; assay type: binding; details: 1000 nM; Entrez MAP3K10; read-out: Percent Control
T9 construct: purchased Eurofins DiscoverX KINOMEscan
Source text: as §1

DDR2 = target: T10, DDR2 (Homo sapiens, UniProt Q16832); assay: KINOMEscan 1 μM, DDR2; assay type: binding; details: 1000 nM; Entrez DDR2; read-out: Percent Control
T10 construct: purchased Eurofins DiscoverX KINOMEscan
Source text: as §1

MAP4K3 = target: T11, MAP4K3 (Homo sapiens, UniProt Q8IVH8); assay: KINOMEscan 1 μM, MAP4K3; assay type: binding; details: 1000 nM; Entrez MAP4K3; read-out: Percent Control
T11 construct: purchased Eurofins DiscoverX KINOMEscan
Source text: as §1

SRC = target: T12, SRC (Homo sapiens, UniProt P12931); assay: KINOMEscan 1 μM, SRC; assay type: binding; details: 1000 nM; Entrez SRC; read-out: Percent Control
T12 construct: purchased Eurofins DiscoverX KINOMEscan
Source text: as §1

PFTAIRE2 = target: T13, PFTAIRE2 (Homo sapiens, UniProt Q96Q40); assay: DiscoverX KINOMEscan binding assay at 1 μM, PFTAIRE2; details: PFTAIRE2 (CDK15); Compound Concentration 1000 nM; read-out: Percent Control
T13 construct: purchased Eurofins DiscoverX KINOMEscan
Source text: as §1

HIPK1 = target: T14, HIPK1 (Homo sapiens, UniProt Q86Z02); assay: KINOMEscan 1 μM, HIPK1; assay type: binding; details: 1000 nM; Entrez HIPK1; read-out: Percent Control
T14 construct: purchased Eurofins DiscoverX KINOMEscan
Source text: as §1

AKT3 = target: T15, AKT3 (Homo sapiens, UniProt Q9Y243); assay: KINOMEscan 1 μM, AKT3; assay type: binding; details: 1000 nM; Entrez AKT3; read-out: Percent Control
T15 construct: purchased Eurofins DiscoverX KINOMEscan
Source text: as §1

PIK3CA(H1047Y) = target: T16, PIK3CA(H1047Y) (Homo sapiens, UniProt P42336, H1047Y); assay: DiscoverX KINOMEscan binding assay at 1 μM, PIK3CA(H1047Y); details: Compound Concentration 1000 nM, read-out: Percent Control
T16 construct: purchased Eurofins DiscoverX KINOMEscan
Source text: as §1

OSR1 = target: T17, OSR1 (Homo sapiens, UniProt O95747); assay: KINOMEscan 1 μM, OSR1; assay type: binding; details: 1000 nM; Entrez OXSR1; read-out: Percent Control
T17 construct: purchased Eurofins DiscoverX KINOMEscan
Source text: as §1

WNK1 = target: T18, WNK1 (Homo sapiens, UniProt Q9H4A3); assay: DiscoverX KINOMEscan binding assay at 1 μM, WNK1; details: Compound Concentration 1000 nM, read-out: Percent Control
T18 construct: purchased Eurofins DiscoverX KINOMEscan
Source text: as §1

MEK3 = target: T19, MEK3 (Homo sapiens, UniProt P46734); assay: KINOMEscan 1 μM, MEK3; assay type: binding; details: 1000 nM; Entrez MAP2K3; read-out: Percent Control
T19 construct: purchased Eurofins DiscoverX KINOMEscan
Source text: as §1

LRRK2 = target: T20, LRRK2 (Homo sapiens, UniProt Q5S007); assay: KINOMEscan 1 μM, LRRK2; assay type: binding; details: 1000 nM; Entrez LRRK2; read-out: Percent Control
T20 construct: purchased Eurofins DiscoverX KINOMEscan
Source text: as §1

SRPK3 = target: T21, SRPK3 (Homo sapiens, UniProt Q9UPE1); assay: KINOMEscan binding assay at 1 μM, SRPK3; details: Compound Concentration 1000 nM; read-out: Percent Control
T21 construct: purchased Eurofins DiscoverX KINOMEscan
Source text: (§2) Supplement cells-12-00287-s001.zip/File S2. KinomeScan data for the CAMKK2 probe and negative control.xlsx, sheet "SGC-CAMKK2-1N" | column: Percent Control

MAPKAPK2 = target: T22, MAPKAPK2 (Homo sapiens, UniProt P49137); assay: KINOMEscan binding assay at 1 μM, MAPKAPK2; details: Compound Concentration 1000 nM; read-out: Percent Control
T22 construct: purchased Eurofins DiscoverX KINOMEscan
Source text: as §2

MEK1 = target: T23, MEK1 (Homo sapiens, UniProt Q02750); assay: KINOMEscan at 1 μM, MEK1; assay type: binding; details: 1000 nM, read-out: Percent Control
T23 construct: purchased Eurofins DiscoverX KINOMEscan
Source text: as §2

EIF2AK1 = target: T24, EIF2AK1 (Homo sapiens, UniProt Q9BQI3); assay: KINOMEscan at 1 μM, EIF2AK1; assay type: binding; details: 1000 nM, read-out: Percent Control
T24 construct: purchased Eurofins DiscoverX KINOMEscan
Source text: as §2

PAK7 = target: T25, PAK7 (Homo sapiens, UniProt Q9P286); assay: KINOMEscan at 1 μM, PAK7; assay type: binding; details: 1000 nM, read-out: Percent Control
T25 construct: purchased Eurofins DiscoverX KINOMEscan
Source text: as §2

ERK3 = target: T26, ERK3 (Homo sapiens, UniProt Q16659); assay: KINOMEscan at 1 μM, ERK3; assay type: binding; details: 1000 nM, read-out: Percent Control
T26 construct: purchased Eurofins DiscoverX KINOMEscan
Source text: as §2

EPHB4 = target: T27, EPHB4 (Homo sapiens, UniProt P54760); assay: KINOMEscan at 1 μM, EPHB4; assay type: binding; details: 1000 nM, read-out: Percent Control
T27 construct: purchased Eurofins DiscoverX KINOMEscan
Source text: as §2

[2] = target: T28, ABL1(F317I)-phosphorylated (Homo sapiens, UniProt P00519, F317I); assay: KINOMEscan at 1 μM, ABL1(F317I)-phosphorylated; assay type: binding; details: 1000 nM, read-out: Percent Control
T28 construct: purchased Eurofins DiscoverX KINOMEscan
Source text: as §2

AMPK-alpha1 = target: T29, AMPK-alpha1 (Homo sapiens, UniProt Q13131); assay: KINOMEscan at 1 μM, AMPK-alpha1; assay type: binding; details: 1000 nM, read-out: Percent Control
T29 construct: purchased Eurofins DiscoverX KINOMEscan
Source text: as §2

ERN1 = target: T30, ERN1 (Homo sapiens, UniProt O75460); assay: KINOMEscan at 1 μM, ERN1; assay type: binding; details: 1000 nM, read-out: Percent Control
T30 construct: purchased Eurofins DiscoverX KINOMEscan
Source text: as §2

SNRK = target: T31, SNRK (Homo sapiens, UniProt Q9NRH2); assay: KINOMEscan binding assay at 1 μM, SNRK; details: Compound Concentration 1000 nM; read-out: Percent Control
T31 construct: purchased Eurofins DiscoverX KINOMEscan
Source text: as §2

QSK = target: T32, QSK (Homo sapiens, UniProt Q9Y2K2); assay: KINOMEscan at 1 μM, QSK; assay type: binding; details: 1000 nM, read-out: Percent Control
T32 construct: purchased Eurofins DiscoverX KINOMEscan
Source text: as §2

LATS2 = target: T33, LATS2 (Homo sapiens, UniProt Q9NRM7); assay: KINOMEscan at 1 μM, LATS2; assay type: binding; details: 1000 nM, read-out: Percent Control
T33 construct: purchased Eurofins DiscoverX KINOMEscan
Source text: as §2

T20 sequence (Q5S007 whole entry): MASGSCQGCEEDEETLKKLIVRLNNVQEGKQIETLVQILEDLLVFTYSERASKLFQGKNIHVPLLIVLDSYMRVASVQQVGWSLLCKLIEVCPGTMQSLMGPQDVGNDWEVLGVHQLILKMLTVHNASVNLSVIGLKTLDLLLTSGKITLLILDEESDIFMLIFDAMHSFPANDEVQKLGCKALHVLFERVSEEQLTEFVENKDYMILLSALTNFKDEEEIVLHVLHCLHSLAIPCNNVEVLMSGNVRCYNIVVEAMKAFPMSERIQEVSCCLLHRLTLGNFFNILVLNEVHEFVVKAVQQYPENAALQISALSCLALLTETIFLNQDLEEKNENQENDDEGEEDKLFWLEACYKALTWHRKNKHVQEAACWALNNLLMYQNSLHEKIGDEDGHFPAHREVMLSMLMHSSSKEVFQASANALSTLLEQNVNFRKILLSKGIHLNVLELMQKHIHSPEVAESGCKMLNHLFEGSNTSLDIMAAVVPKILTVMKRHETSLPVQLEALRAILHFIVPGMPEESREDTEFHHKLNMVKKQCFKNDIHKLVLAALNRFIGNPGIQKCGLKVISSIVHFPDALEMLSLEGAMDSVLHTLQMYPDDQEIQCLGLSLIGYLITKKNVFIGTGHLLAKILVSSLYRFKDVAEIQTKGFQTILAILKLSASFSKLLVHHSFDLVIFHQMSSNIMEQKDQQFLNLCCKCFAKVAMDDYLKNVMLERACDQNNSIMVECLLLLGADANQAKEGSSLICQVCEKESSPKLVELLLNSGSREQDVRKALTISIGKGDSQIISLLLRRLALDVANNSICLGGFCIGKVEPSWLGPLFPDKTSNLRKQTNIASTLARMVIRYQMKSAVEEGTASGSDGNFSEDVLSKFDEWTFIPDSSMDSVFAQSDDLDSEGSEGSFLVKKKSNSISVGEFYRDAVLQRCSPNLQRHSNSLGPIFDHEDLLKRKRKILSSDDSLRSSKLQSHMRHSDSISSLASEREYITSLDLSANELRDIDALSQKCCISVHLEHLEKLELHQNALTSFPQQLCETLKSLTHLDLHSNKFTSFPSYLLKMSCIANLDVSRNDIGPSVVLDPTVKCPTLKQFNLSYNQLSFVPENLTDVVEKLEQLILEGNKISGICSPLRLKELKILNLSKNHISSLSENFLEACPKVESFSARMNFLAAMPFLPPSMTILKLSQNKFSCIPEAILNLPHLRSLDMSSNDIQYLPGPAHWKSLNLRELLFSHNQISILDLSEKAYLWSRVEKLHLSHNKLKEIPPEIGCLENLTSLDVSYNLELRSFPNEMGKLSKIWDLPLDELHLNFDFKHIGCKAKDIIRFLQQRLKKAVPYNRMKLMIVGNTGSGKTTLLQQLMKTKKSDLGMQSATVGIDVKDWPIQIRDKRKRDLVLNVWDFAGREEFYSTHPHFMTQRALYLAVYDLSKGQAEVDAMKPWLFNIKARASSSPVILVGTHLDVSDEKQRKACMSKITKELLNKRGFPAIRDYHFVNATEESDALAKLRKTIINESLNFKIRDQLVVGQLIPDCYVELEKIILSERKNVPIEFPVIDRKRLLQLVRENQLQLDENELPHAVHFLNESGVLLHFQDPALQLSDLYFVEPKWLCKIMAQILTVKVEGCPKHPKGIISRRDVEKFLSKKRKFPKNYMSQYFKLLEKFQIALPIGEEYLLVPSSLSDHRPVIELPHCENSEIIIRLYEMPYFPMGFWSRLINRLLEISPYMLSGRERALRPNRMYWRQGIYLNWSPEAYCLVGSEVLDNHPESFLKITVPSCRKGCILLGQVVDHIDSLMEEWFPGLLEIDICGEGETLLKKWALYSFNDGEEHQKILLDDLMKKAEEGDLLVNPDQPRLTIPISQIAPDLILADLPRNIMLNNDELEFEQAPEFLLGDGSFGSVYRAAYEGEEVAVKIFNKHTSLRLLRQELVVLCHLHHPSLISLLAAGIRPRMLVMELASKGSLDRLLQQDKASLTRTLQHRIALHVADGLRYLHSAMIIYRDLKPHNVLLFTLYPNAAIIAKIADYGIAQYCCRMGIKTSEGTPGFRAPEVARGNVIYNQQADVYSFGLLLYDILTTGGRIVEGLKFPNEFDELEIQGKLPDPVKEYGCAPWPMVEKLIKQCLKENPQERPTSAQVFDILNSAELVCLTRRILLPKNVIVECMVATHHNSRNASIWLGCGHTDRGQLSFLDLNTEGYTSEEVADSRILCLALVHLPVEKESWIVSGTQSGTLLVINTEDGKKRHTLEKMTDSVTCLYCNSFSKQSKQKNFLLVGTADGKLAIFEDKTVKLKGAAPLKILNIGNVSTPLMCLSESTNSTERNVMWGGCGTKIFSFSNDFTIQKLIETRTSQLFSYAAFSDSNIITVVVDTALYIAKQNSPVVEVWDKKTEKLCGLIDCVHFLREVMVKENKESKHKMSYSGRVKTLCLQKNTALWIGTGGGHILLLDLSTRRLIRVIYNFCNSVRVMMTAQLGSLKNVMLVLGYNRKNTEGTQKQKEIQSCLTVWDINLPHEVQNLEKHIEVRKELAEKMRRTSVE
T10 sequence (Q16832 22-855): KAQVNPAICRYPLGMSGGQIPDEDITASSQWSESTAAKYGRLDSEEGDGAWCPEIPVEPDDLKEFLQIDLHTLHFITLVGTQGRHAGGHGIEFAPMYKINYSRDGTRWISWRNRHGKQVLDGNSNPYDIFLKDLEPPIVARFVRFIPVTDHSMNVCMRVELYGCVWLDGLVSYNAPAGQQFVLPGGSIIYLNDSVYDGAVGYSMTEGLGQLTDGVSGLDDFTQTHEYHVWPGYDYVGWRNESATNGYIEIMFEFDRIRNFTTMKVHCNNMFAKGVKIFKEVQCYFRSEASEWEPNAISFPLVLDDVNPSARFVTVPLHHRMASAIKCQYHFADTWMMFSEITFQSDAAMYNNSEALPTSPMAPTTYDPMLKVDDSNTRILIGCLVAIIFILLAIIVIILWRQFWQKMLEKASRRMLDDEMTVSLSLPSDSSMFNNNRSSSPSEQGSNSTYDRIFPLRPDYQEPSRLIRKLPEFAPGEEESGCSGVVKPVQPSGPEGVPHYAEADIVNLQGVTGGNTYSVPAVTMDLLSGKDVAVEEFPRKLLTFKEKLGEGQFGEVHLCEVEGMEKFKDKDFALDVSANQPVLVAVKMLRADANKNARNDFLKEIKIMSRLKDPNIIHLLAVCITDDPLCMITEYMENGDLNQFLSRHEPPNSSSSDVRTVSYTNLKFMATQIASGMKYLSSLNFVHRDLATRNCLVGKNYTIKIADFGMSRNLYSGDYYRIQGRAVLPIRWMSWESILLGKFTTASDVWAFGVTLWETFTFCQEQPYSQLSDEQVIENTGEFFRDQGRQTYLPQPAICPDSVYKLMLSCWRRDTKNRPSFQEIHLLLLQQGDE
T25 sequence (Q9P286 whole entry): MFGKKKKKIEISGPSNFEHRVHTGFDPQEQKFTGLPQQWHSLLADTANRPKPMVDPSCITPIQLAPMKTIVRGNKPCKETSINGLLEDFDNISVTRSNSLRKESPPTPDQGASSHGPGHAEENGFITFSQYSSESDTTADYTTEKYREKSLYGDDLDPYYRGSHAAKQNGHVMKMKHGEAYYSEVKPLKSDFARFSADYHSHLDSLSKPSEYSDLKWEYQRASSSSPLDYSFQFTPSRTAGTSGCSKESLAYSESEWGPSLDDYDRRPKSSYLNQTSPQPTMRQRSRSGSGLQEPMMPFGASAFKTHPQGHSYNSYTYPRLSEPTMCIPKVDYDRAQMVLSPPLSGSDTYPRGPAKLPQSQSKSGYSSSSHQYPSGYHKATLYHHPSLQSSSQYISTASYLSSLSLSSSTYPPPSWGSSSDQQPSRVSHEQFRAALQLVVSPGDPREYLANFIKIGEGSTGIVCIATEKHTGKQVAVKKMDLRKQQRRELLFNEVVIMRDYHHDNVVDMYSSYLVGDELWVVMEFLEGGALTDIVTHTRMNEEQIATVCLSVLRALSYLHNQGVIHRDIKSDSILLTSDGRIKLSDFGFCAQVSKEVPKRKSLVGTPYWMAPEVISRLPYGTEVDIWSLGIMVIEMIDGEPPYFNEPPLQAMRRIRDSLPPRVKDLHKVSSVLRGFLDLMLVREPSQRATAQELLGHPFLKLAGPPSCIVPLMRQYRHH
T29 sequence (Q13131 whole entry): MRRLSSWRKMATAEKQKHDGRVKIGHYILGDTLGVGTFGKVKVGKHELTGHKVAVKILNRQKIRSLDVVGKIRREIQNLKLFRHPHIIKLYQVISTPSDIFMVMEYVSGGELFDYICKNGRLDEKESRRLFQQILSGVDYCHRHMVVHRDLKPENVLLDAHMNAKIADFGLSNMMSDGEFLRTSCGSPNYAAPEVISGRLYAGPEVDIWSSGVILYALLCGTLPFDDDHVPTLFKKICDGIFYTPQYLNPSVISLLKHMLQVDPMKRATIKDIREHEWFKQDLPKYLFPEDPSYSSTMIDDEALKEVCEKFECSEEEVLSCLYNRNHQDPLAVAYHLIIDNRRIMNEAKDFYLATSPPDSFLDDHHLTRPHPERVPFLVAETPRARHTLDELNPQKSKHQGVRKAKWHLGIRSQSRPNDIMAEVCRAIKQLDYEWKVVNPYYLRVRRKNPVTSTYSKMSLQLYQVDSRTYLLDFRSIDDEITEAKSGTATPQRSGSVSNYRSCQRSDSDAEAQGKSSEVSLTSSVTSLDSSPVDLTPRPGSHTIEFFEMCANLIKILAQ
T2 sequence (Q96GD4 whole entry): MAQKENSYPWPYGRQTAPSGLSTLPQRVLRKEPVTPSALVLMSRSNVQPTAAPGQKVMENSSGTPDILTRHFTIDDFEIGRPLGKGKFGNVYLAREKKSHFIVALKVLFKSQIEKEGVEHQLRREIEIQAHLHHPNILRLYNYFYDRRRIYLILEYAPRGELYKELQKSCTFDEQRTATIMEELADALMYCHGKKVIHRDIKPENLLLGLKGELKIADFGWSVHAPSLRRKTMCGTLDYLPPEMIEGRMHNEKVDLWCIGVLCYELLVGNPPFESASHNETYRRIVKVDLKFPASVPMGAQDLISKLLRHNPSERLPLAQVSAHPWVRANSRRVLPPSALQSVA

`Cc1cccc(-c2cnc3occ(-c4ccc(C(=O)O)c(C5CCCC5)c4)c3c2)c1` [SGC-CAMKK2-1 (YL-36)] was tested, and the remaining binding at 1 µM (ALK) was 100%, the remaining binding at 1 µM (AURKB) was 100% and the remaining binding at 1 µM (PDPK1) was 95%. It also gave a remaining binding at 1 µM (PRKD2) of 100%, a remaining binding at 1 µM (SIK2) of 85% and a remaining binding at 1 µM (PLK2) of 100%. The remaining binding at 1 µM [1] was 100%, the remaining binding at 1 µM (MAP4K5) was 100% and the remaining binding at 1 µM (MLK2) was 100%. The remaining binding at 1 µM (DDR2) was 100%, the remaining binding at 1 µM (MAP4K3) was 78% and the remaining binding at 1 µM (SRC) was 96%. The remaining binding at 1 µM (PFTAIRE2) was 100%, the remaining binding at 1 µM (HIPK1) was 90% and the remaining binding at 1 µM (AKT3) was 100%. It also gave a remaining binding at 1 µM (PIK3CA(H1047Y)) of 100%, a remaining binding at 1 µM (OSR1) of 84% and a remaining binding at 1 µM (WNK1) of 100%. It also gave a remaining binding at 1 µM (MEK3) of 91% and a remaining binding at 1 µM (LRRK2) of 70%.
For `O=C(O)c1ccc(-c2coc3ncc(-c4ccccc4)cc23)cc1Cl` [SGC-CAMKK2-1N (UNC-YL-83)], the remaining binding at 1 µM (SRPK3) was 100%, the remaining binding at 1 µM (MAPKAPK2) was 100% and the remaining binding at 1 µM (MEK1) was 93%. It also gave a remaining binding at 1 µM (EIF2AK1) of 42%, a remaining binding at 1 µM (PAK7) of 84% and a remaining binding at 1 µM (ERK3) of 92%. For the same molecule, the remaining binding at 1 µM (EPHB4) was 56%, the remaining binding at 1 µM [2] was 90% and the remaining binding at 1 µM (AMPK-alpha1) was 100%. The remaining binding at 1 µM (ERN1) was 76%, the remaining binding at 1 µM (SNRK) was 100% and the remaining binding at 1 µM (QSK) was 46%. The remaining binding at 1 µM (LATS2) was 87%.
